Converted amounts (≈) assume the structure as drawn.

In one assay the test system is Trichosporon cutaneum IFO 1189. Nature of the assay: Antifungal activity, minimum growth inhibition concentration (MIC), agar plate dilution method. It counts as cell-based. To be noted: Cutaneotrichosporon cutaneum, IFO1189, 48 h; agar plate dilution method, Trichosporon cutaneum IFO 1189, culture at 37° C. for 2 days, yeast-nitrogen base with 1% glucose.
The compound `C=C1C2CC3C(C(C)C)C(OC(=O)CC(C)C)CC3(C)CC2C(C)=CCC2C(C)OC(=O)C(O)C12O` (stereo not shown) [Compound 9, 1,13a-dihydroxy-11-isopropyl-4,7,8a-trimethyl-13-methylene-2-oxo-1,2,4,4a,5,7a,8,8a,9,10,11,11a,12,12a,13,13a-hexadecahydroindeno[5',6':4,5]cycloocta[1,2-c]pyran-10-yl 3-methylbutanoate] returned a minimal inhibitory concentration (MIC) of 6.25 mg/L (≈ 12.4 µM).

Take `C=C1C2CC3C(C(C)C)C(OC(=O)CCC)CC3(C)CC2C(C)=CCC2C(C)OC(=O)C(O)C12O` (stereo not shown) [Compound 5, 1,13a-dihydroxy-11-isopropyl-4,7,8a-trimethyl-13-methylene-2-oxo-1,2,4,4a,5,7a,8,8a,9,10,11,11a,12,12a,13,13a-hexadecahydroindeno[5',6':4,5]cycloocta[1,2-c]pyran-10-yl butanoate]: it took 6.25 mg/L (≈ 12.8 µM) to inhibit growth (MIC).

As for `C=C1C2CC3C(C(C)C)C(OC(=O)NCC)CC3(C)CC2C(C)=CCC2C(C)OC(=O)C(O)C12O` (stereo not shown) [Compound 33, 1,13a-dihydroxy-11-isopropyl-4,7,8a-trimethyl-13-methylene-2-oxo-1,2,4,4a,5,7a,8,8a,9,10,11,11a,12,12a,13,13a-hexadecahydroindeno[5',6':4,5]cycloocta[1,2-c]pyran-10-yl N-ethylcarbamate], the MIC was 6.25 mg/L (≈ 12.8 µM).

`C=C1C2CC3C(C(C)C)C(OC(=O)NCc4ccccc4)CC3(C)CC2C(C)=CCC2C(C)OC(=O)C(O)C12O` (stereo not shown) [Compound 40, 1,13a-dihydroxy-11-isopropyl-4,7,8a-trimethyl-13-methylene-2-oxo-1,2,4,4a,5,7a,8,8a,9,10,11,11a,12,12a,13,13a-hexadecahydroindeno[5',6':4,5]cycloocta[1,2-c]pyran-10-yl N-benzylcarbamate] returned an MIC of 6.25 mg/L (≈ 11.3 µM).

Take `C=C1C2CC3C(C(C)C)C(OC(=O)NC4CCCCC4)CC3(C)CC2C(C)=CCC2C(C)OC(=O)C(O)C12O` (stereo not shown) [Compound 46, 1,13a-dihydroxy-11-isopropyl-4,7,8a-trimethyl-13-methylene-2-oxo-1,2,4,4a,5,7a,8,8a,9,10,11,11a,12,12a,13,13a-hexadecahydroindeno[5',6':4,5]cycloocta[1,2-c]pyran-10-yl N-cyclohexylcarbamate]: the MIC was determined as 12.5 mg/L (≈ 23 µM).

`C=C1C2CC3C(C(C)C)C(OS(=O)(=O)CCCC)CC3(C)CC2C(C)=CCC2C(C)OC(=O)C(O)C12O` (stereo not shown) [Compound 32, 1,13a-dihydroxy-11-isopropyl-4,7,8a-trimethyl-13-methylene-2-oxo-1,2,4,4a,5,7a,8,8a,9,10,11,11a,12,12a,13,13a-hexadecahydroindeno[5',6':4,5]cycloocta[1,2-c]pyran-10-yl 1butanesulfonate] gave an MIC of 6.25 mg/L. Against the preceding compound, the MIC is about 2-fold lower.

`C=C1C2CC3C(C(C)C)C(OC(=O)c4ccc(F)cc4)CC3(C)CC2C(C)=CCC2C(C)OC(=O)C(O)C12O` (stereo not shown) [Compound 23, 1,13a-dihydroxy-11-isopropyl-4,7,8a-trimethyl-13-methylene-2-oxo-1,2,4,4a,5,7a,8,8a,9,10,11,11a,12,12a,13,13a-hexadecahydroindeno[5',6':4,5]cycloocta[1,2-c]pyran-10-yl 4-fluorobenzoate] came in with an MIC of 12.5 mg/L (≈ 23.1 µM).

Compound `C=C1C2CC3C(C(C)C)C(OC(=O)c4ccc(Cl)nc4)CC3(C)CC2C(C)=CCC2C(C)OC(=O)C(O)C12O` (stereo not shown) [Compound 26, 1,13a-dihydroxy-11-isopropyl-4,7,8a-trimethyl-13-methylene-2-oxo-1,2,4,4a,5,7a,8,8a,9,10,11,11a,12,12a,13,13a-hexadecahydroindeno[5',6':4,5]cycloocta[1,2-c]pyran-10-yl 6-chloronicotinate] came in with an MIC of 3.13 mg/L (≈ 5.61 µM).

`C=C1C2CC3C(C(C)C)C(OC(=O)Nc4ccc(F)cc4)CC3(C)CC2C(C)=CCC2C(C)OC(=O)C(O)C12O` (stereo not shown) [Compound 39, 1,13a-dihydroxy-11-isopropyl-4,7,8a-trimethyl-13-methylene-2-oxo-1,2,4,4a,5,7a,8,8a,9,10,11,11a,12,12a,13,13a-hexadecahydroindeno[5',6':4,5]cycloocta[1,2-c]pyran-10-yl N-(4-fluorophenyl)carbamate] displayed an MIC of 3.13 mg/L (≈ 5.63 µM).

Consider `C=C1C2CC3C(C(C)C)C(OC(=O)Nc4ccccc4)CC3(C)CC2C(C)=CCC2C(C)OC(=O)C(O)C12O` (stereo not shown) [Compound 43, 1,13a-dihydroxy-11-isopropyl-4,7,8a-trimethyl-13-methylene-2-oxo-1,2,4,4a,5,7a,8,8a,9,11a,12,12a,13,13a-hexadecahydroindeno[5',6':4,5]cycloocta [1,2-c]pyran-10-yl N-phenylcarbamate], for which the lowest concentration to inhibit growth (MIC) was 3.13 mg/L (≈ 5.82 µM).

In turn, `C=C1C2CC3C(C(C)C)C(OC(=O)C(O)CCCC)CC3(C)CC2C(C)=CCC2C(C)OC(=O)C(O)C12O` (stereo not shown) [Compound 14, 1,13a-dihydroxy-11-isopropyl-4,7,8a-trimethyl-13-methylene-2-oxo-1,2,4,4a,5,7a,8,8a,9,10,11,11a,12,12a,13,13a-hexadecahydroindeno[5',6':4,5]cycloocta[1,2-c]pyran-10-yl 2-hydroxyhexanoate] showed an MIC of 12.5 mg/L (≈ 23.5 µM).

`C=C1C2CC3C(C(C)C)C(NC(=O)Cc4csc5ccccc45)CC3(C)CC2C(C)=CCC2C(C)OC(=O)C(O)C12O` (stereo not shown) [Compound 64, N'-(1,13a-dihydroxy-11-isopropyl-4,7,8a-trimethyl-13-methylene-2-oxo-1,2,4,4a,5,7a,8,8a,9,10,11,11a,12,12a,13,13a-hexadecahydroindeno[5',6': 4,5]cycloocta[1,2-c]pyran-10-yl)-3-benzo[b]thienylacetamide] registered an MIC of 6.25 mg/L (≈ 10.6 µM).

The compound `C[C@@H]1[C@H](O)[C@@H](C)/C=C/C=C/C=C/C=C/C=C/C=C/C=C/[C@H](O[C@@H]2O[C@H](C)[C@@H](O)[C@H](N)[C@@H]2O)C[C@@H]2O[C@](O)(C[C@@H](O)C[C@@H](O)[C@H](O)CC[C@@H](O)C[C@@H](O)CC(=O)O[C@H]1C)C[C@H](O)[C@H]2C(=O)O` [amphotericin B, reference compound] gave an MIC of at least 100 mg/L.

Turning to `C=C1C2CC3C(C(C)C)C(OS(=O)(=O)/C=C/c4ccccc4)CC3(C)CC2C(C)=CCC2C(C)OC(=O)C(O)C12O` (stereo not shown) [Compound 31, 1,13a-dihydroxy-11-isopropyl-4,7,8a-trimethyl-13-methylene-2-oxo-1,2,4,4a,5,7a,8,8a,9,10,11,11a,12,12a,13,13a-hexadecahydroindeno[5',6':4,5]cycloocta[1,2-c]pyran-10-yl (E)-2-phenyl-1-ethene-1sulfonate], the MIC was 12.5 mg/L (≈ 21.4 µM).

In turn, `C=C1C2CC3C(C(C)C)C(OC(=O)NC4CCCCO4)CC3(C)CC2C(C)=CCC2C(C)OC(=O)C(O)C12O` (stereo not shown) [Compound 42, 1,13a-dihydroxy-11-isopropyl-4,7,8a-trimethyl-13-methylene-2-oxo-1,2,4,4a,5,7a,8,8a,9,10,11,11a,12,12a,13,13a-hexadecahydroindeno[5',6':4,5]cycloocta[1,2-c]pyran-10-yl N-tetrahydro-2H-pyran-2-ylcarbamate] yielded an MIC of 12.5 mg/L (≈ 22.9 µM).

Regarding `C=C1C2CC3C(C(C)C)C(NC(=O)CC(C)(O)CC(C)CC)CC3(C)CC2C(C)=CCC2C(C)OC(=O)C(O)C12O` (stereo not shown) [Compound 54, N'-(1,13a-dihydroxy-11-isopropyl-4,7,8a-trimethyl-13-methylene-2-oxo-1,2,4,4a,5,7a,8,8a,9,10,11,11a,12,12a,13,13a-hexadecahydroindeno[5',6': 4,5]cycloocta [1,2-c]pyran-10-yl)-3-hydroxy-3,5-dimethylheptanamide], inhibition of growth (MIC) required 12.5 mg/L (≈ 21.8 µM).

On to `C=C1C2CC3C(C(C)C)C(NC(=O)Cc4ccc(Cl)cc4)CC3(C)CC2C(C)=CCC2C(C)OC(=O)C(O)C12O` (stereo not shown) [Compound 65, N'-(1,13a-dihydroxy-11-isopropyl-4,7,8a-trimethyl-13-methylene-2-oxo-1,2,4,4a,5,7a,8,8a,9,10,11,11a,12,12a,13,13a-hexadecahydroindeno[5',6': 4,5]cycloocta[1,2-c]pyran-10-yl)-4-chlorophenylacetamide], for which the lowest concentration to inhibit growth (MIC) was 6.25 mg/L (≈ 11 µM).

The assay is the same for the next values; noted with them: agar plate dilution method, Trichosporon cutaneum IFO 1189, culture at 37° C. for 2 days, yeast-nitrogen base with 1% glucose.
Regarding `C=C1C2CC3C(C(C)C)C(OC(=O)CC(C)(O)CC(C)CC)CC3(C)CC2C(C)=CCC2C(C)OC(=O)C(O)C12O` (stereo not shown) [BE-49385 A, reference compound], the “MIC (minimum growth inhibition concentration)” value is at least 100 mg/L.

Staying with this assay, now noted: fungi against which BE-49385 A does not show an antifungal activity.
As to `C=C1C2CC3C(C(C)C)C(OC(=O)CC(C)(O)CC(C)CC)CC3(C)CC2C(C)=CCC2C(C)OC(=O)C(O)C12O` (stereo not shown) [BE-49385 A, reference compound], the “antifungal activity (in words)” value was “does not show an antifungal activity”.
